Laboratory results: ChEMBL document CHEMBL1201862, “PubChem BioAssay data set” (2004)
Active and inactive are the calls of the source.

Key:
[1] = target: Sphingosine 1-phosphate receptor 2 (Homo sapiens, UniProt O95136); assay: Dose Response Cell Based Assay for Agonists of the S1P2 Receptor of Purchased Analogues. [Related pubchem assays: 729, 843, 854, 736 ]; type: functional
NS3 = NS3 (Hepatitis C virus, UniProt A3EZJ3); assay: PubChem AID 2173; design: species or system Hepacivirus hominis
Large T antigen = Large T antigen (Simian virus 40, UniProt P03070); type: functional, Betapolyomavirus macacae;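 note: Confirmatory-stage PubChem screen for compounds that inhibit SV40 T antigen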
Chain of Large T antigen (P03070 whole entry): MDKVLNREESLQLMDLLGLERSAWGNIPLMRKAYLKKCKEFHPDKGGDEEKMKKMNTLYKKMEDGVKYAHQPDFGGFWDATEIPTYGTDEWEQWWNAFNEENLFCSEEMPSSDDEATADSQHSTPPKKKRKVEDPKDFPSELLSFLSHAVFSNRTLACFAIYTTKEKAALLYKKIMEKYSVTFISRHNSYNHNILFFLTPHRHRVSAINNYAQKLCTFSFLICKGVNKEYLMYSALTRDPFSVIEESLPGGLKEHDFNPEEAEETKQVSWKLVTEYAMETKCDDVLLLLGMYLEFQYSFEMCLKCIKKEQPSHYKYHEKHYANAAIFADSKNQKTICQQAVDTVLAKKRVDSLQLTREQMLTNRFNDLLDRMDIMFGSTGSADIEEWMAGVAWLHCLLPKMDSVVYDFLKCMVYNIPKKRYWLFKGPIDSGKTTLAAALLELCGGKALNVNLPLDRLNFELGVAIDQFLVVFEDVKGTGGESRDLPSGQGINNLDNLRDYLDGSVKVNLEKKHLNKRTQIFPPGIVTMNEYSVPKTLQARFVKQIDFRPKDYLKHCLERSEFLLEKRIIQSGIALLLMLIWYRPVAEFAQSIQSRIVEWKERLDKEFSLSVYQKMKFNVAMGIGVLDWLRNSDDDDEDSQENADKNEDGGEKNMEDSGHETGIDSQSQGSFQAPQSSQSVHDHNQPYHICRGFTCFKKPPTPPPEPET

Ion channel NompC = Ion channel NompC (Danio rerio, UniProt Q7T1G6); assay: Fluorescence counterscreen assay for TRPML3 agonists: dose response cell-based high-throughput screening assay to identify agonists of the transient receptor potential channel N1 (TRPN1). [Related pubchem assays: 1526, 1424, 1448 ]; type: functional
Chain of Ion channel NompC (Q7T1G6 whole entry): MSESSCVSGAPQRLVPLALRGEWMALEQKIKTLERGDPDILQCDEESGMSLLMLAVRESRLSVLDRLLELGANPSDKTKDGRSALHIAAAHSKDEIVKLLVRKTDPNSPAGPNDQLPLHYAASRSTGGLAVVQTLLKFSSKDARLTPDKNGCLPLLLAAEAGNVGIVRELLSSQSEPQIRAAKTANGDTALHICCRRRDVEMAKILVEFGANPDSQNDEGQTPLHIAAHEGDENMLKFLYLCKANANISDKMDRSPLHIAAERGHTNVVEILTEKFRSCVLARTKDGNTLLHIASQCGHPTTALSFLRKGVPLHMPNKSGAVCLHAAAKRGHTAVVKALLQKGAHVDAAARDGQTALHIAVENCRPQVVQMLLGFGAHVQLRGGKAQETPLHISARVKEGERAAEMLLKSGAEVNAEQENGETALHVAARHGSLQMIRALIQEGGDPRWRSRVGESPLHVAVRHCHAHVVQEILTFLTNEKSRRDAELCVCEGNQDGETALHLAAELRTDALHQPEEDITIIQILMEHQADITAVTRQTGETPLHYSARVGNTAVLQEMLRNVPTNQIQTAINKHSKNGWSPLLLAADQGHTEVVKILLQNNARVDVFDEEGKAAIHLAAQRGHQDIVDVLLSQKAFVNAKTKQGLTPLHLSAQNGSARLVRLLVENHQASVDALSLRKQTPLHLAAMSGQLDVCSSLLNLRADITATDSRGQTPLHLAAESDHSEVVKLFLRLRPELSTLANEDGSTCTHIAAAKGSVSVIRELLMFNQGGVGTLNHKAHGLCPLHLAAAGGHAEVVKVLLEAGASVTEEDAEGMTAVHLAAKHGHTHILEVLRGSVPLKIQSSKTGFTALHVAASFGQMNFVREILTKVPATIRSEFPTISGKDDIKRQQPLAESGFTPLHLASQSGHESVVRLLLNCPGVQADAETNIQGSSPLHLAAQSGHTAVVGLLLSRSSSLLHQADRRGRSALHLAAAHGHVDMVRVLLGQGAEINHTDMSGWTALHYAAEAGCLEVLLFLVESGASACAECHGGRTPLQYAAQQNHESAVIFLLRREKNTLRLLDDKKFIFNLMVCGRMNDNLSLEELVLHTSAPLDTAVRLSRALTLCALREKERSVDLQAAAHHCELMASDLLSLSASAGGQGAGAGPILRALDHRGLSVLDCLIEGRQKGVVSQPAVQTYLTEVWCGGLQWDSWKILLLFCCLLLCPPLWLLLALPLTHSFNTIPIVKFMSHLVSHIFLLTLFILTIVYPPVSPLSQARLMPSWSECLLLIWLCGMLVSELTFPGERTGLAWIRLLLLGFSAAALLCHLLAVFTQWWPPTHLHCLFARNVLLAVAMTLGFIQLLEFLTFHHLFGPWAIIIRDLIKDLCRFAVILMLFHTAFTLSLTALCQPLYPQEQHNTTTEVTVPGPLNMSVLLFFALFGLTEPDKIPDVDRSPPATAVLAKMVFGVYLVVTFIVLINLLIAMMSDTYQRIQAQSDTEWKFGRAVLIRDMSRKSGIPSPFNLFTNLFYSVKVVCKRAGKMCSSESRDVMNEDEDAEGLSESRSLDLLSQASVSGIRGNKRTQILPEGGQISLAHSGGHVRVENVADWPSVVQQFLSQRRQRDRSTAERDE

[2] = target: Mothers against decapentaplegic homolog 3 (Homo sapiens, UniProt P84022); assay: inhibitors of SMAD-driven TGF-beta signaling – dose response (AID 715); type: functional
Chain of Mothers against decapentaplegic homolog 3 (P84022 whole entry): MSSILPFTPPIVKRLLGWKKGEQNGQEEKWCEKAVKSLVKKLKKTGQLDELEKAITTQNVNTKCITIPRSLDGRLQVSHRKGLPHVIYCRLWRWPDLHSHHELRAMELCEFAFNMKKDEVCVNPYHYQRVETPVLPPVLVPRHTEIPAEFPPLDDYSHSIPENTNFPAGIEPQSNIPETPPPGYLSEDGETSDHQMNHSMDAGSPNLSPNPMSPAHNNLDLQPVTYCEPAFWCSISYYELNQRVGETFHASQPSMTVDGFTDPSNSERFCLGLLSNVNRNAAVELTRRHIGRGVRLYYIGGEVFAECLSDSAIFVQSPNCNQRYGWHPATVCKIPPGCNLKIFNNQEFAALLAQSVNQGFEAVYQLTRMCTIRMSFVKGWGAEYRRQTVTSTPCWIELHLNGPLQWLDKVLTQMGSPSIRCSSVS

Mucolipin-3 = target: T1, Mucolipin-3 (Homo sapiens, UniProt Q8TDD5); assay: Dose response cell-based high-throughput screening assay for agonists of the transient receptor potential channel ML3 (TRPML3). [Related pubchem assays: 1526, 1424, 1448 ]; type: functional
T1 sequence (Q8TDD5 whole entry): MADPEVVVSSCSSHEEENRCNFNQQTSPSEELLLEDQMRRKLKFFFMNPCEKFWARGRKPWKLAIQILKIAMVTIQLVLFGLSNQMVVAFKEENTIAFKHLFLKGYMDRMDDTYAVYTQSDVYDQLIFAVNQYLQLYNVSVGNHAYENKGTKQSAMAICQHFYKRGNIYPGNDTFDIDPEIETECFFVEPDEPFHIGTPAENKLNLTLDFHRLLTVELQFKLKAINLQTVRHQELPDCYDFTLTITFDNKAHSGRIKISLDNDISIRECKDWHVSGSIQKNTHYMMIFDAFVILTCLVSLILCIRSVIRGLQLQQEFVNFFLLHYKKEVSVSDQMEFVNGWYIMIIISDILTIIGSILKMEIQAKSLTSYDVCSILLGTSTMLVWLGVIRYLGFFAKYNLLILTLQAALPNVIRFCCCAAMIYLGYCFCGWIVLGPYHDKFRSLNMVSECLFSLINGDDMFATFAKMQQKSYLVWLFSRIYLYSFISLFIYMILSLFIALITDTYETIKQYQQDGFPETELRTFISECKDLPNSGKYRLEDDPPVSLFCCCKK

[3] = target: Glyceraldehyde-3-phosphate dehydrogenase (Homo sapiens, UniProt P04406)
Chain of Glyceraldehyde-3-phosphate dehydrogenase (P04406 whole entry): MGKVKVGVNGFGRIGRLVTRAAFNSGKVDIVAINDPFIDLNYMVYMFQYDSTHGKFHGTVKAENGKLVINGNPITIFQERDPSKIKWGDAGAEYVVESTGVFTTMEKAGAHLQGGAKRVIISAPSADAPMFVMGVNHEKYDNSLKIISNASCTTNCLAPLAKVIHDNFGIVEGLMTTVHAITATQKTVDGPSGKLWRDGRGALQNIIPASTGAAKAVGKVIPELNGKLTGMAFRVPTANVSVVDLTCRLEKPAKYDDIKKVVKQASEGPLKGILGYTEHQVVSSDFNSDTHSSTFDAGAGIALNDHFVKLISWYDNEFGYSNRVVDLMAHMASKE

Bcl-2-related protein A1 [4] = target: T2, Bcl-2-related protein A1 (Mus musculus, UniProt Q07440); assay: small-molecule antagonists of Bfl-1/BH3 interaction – biochemical, TR-FRET, mouse Bfl-1, confirmation (AID 621);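 note: TR-FRET binding of GST-Bfl-1 to FITC-labelled Bid peptide via terbium antibody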
T2 sequence (Q07440 whole entry): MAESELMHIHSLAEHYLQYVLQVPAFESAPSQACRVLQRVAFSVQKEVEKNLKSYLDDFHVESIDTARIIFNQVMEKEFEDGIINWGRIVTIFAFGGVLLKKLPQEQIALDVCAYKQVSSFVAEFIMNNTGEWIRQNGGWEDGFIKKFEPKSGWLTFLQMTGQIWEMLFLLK

Bcl-2-related protein A1 [5] = target: T2, Bcl-2-related protein A1; assay: Bfl-1 binding inhibitors, SAR follow-up, biochemical, fluorescence polarization (AID 1070)

Chain of NS3 (A3EZJ3 whole entry): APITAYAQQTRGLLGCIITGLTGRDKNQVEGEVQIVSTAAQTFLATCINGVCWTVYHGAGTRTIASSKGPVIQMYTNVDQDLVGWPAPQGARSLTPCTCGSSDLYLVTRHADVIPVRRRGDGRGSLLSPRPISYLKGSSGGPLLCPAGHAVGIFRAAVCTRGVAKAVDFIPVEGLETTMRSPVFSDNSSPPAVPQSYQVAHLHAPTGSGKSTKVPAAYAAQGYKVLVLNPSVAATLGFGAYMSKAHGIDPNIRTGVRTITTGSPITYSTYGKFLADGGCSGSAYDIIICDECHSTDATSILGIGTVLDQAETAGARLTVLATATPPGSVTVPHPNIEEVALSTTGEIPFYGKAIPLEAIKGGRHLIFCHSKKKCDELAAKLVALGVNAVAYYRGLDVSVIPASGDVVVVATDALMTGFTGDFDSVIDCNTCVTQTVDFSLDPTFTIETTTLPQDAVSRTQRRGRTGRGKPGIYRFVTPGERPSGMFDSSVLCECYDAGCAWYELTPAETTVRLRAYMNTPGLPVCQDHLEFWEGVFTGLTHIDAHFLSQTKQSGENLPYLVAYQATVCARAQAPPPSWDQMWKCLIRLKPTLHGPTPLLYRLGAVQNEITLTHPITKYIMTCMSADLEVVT
Chain of Sphingosine 1-phosphate receptor 2 (O95136 whole entry): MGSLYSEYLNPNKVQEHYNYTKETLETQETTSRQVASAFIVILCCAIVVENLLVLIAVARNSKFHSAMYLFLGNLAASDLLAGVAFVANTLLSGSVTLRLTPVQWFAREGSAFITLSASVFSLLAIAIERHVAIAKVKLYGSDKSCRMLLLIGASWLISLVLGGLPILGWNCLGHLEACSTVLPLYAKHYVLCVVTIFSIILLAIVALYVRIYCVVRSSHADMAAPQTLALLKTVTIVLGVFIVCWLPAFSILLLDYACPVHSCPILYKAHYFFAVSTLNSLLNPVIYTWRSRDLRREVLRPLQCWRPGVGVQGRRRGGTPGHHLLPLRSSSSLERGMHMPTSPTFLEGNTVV

## Cc1cc(C(=O)CSc2nc[nH]n2)c(C)n1Cc1ccccc1
[1]
  EC50: > 30 µM (not active)

## O=C1NC(=O)N(c2ccccc2)C(=O)/C1=C\c1ccc([N+](=O)[O-])s1
NS3
  IC50: 15.7 µM (not active)
Large T antigen
  IC50: 42.1 µM (active)

## CC(c1ccccc1)C1CC(=O)N(C2CCCCC2)C1=O (centres undefined)
Ion channel NompC
  EC50: > 29.9 µM (not active)
[2]
  IC50: 125 µM (inconclusive)
Mucolipin-3
  EC50: 4.1 µM (active)

## O=C1C(Cl)=C(N2CCN(C(c3ccccc3)c3ccc(Cl)cc3)CC2)C(=O)N1c1ccc(Cl)c(Cl)c1 (centres undefined)
[3]
  IC50: > 100 µM (not active)
Bcl-2-related protein A1 [4]
  IC50: > 100 µM (not active)
Bcl-2-related protein A1 [5]
  IC50: > 100 µM (not active)
